Patent US11939314B2, “Quinolin-2-one derivatives” (MERCK PATENT GMBH, priority 2016, dated 2024)

What was measured:
c-Kit(V654A) = molecular target: T1, c-Kit(V654A) (Homo sapiens, UniProt P10721, V654A); test: c-Kit(V654A) assay; assay type: biochemical; details: recombinant human c-Kit aa 544-end, 200 μM ATP, 1.4E-06 means 1.4×10^−6, read-out: Inhibition (IC50) of c-KIT (V654A)
T1 construct: amino acids 544-end containing the V654A mutation; GST (N)
Experimental: (§1) c-Kit(V654A) (N-terminal GST-tagged, recombinant human c-Kit, amino acids 544-end containing the V654A mutation) is incubated with 8 mM MOPS pH 7.0, 0.2 mM EDTA, 250 μM GGMEDIYEFMGGKKK, 10 mM MgAcetate and [gamma-33P-ATP] (specific activity approx. 500 cpm/pmol, concentration 200 μM). The reaction is initiated by the addition of the MgATP mix. After incubation for 40 minutes at room temperature, the reaction is stopped by the addition of 3% phosphoric acid solution. 10 μL of the reaction is then spotted onto a P30 filtermat and washed three times for 5 minutes in 75 mM phosphoric acid and once in methanol prior to drying and scintillation counting.

PDGFRalpha(V561D) = molecular target: T2, PDGFRalpha(V561D) (Homo sapiens, UniProt P16234, V561D); test: PDGFRalpha(V561D) assay; assay type: biochemical; details: recombinant human PDGFRalpha aa 550-end, 200 μM ATP, 1.4E-06 means 1.4×10^−6, read-out: Inhibition (IC50) of PDGFRα (V561D)
T2 construct: recombinant human PDGFRalpha, amino acids 550end containing the V561 D mutation; 6His (N)
T2 sequence (P16234 550-1089 V561D): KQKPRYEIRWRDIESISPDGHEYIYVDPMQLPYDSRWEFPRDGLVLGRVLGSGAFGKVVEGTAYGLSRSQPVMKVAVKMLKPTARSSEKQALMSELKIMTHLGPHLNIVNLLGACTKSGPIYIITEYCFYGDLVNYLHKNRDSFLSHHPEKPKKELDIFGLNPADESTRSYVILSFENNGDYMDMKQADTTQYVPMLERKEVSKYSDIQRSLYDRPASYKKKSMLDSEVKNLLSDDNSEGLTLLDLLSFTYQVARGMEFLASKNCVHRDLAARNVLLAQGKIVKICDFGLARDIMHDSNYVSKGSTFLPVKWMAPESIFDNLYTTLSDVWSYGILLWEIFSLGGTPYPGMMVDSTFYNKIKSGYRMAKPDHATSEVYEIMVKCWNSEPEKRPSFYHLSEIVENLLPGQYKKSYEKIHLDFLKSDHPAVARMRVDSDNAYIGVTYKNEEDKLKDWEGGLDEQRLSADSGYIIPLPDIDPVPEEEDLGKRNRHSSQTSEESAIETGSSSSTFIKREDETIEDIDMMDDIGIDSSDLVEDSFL
Experimental: as §1, with “PDGFRalpha(V561D)” for “c-Kit(V654A)”, “6His-tagged,” for “GST-tagged,”, “PDGFRalpha,” for “c-Kit,”, “550end” for “544-end”, “V561 D” for “V654A”

T1 sequence (P10721 544-976 V654A): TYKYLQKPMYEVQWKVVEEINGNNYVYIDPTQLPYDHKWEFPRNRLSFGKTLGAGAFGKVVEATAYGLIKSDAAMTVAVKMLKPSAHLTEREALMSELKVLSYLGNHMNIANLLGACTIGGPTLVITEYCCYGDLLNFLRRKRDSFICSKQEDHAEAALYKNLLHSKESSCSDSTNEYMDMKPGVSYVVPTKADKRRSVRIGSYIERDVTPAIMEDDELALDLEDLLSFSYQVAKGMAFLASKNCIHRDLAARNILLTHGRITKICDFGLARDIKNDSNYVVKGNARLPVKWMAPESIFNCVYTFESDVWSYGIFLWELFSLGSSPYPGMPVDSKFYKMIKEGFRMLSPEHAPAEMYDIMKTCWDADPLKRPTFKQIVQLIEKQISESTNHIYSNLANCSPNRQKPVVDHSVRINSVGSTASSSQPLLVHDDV

SMILES	IC50 (c-Kit(V654A))	IC50 (PDGFRalpha(V561D))
COCC1CCCN1C(=O)c1ccc(-n2cc(-c3cc4cc(F)ccc4[nH]c3=O)nn2)cc1 (stereo in doubt) [A198, 6-fluoro-3-{1-[4-((R)-2-methoxymethyl-pyrrolidine-1-carbonyl)-phenyl]-1H-[1,2,3]triazol-4-yl}-1H-quinolin-2-one]	30 nM	200 nM
NC1CCN(C(=O)c2ccc(-n3cc(-c4cc5cc(F)ccc5[nH]c4=O)nn3)cc2)C1 (stereo in doubt) [A306, 3-{1-[4-((S)-3-amino-pyrrolidine-1-carbonyl)-phenyl]-1H-[1,2,3]triazol-4-yl}-6-fluoro-1H-quinolin-2-one]	45 nM	240 nM
CO[C@H]1CC[C@@H](Oc2ccc(-n3cc(-c4cc5cc(F)ccc5[nH]c4=O)nn3)cc2)C1 (stereo in doubt) [A355, 6-Fluoro-3-{1-[4-((trans)-3-methoxy-cyclopentyloxy)-phenyl]-1H-[1,2,3]triazol-4-yl}-1H-quinolin-2-one]	89 nM	1600 nM
CO[C@@H]1CC[C@H](Oc2ccc(-n3cc(-c4cc5cc(Cl)ccc5[nH]c4=O)nn3)cc2)C1 (stereo in doubt) [A356, 6-chloro-3-{1-[4-((1S,3R)-3-methoxy-cyclopentyloxy)-phenyl]-1H-[1,2,3]triazol-4-yl}-1H-quinolin-2-one]	96 nM	150 nM
O=C(c1ccc(-n2cc(-c3cc4cc(F)ccc4[nH]c3=O)nn2)cc1)N1CCOCC1 [A1, 6-fluoro-3-{1-[4-(morpholine-4-carbonyl)-phenyl]-1H-[1,2,3]triazol-4-yl}-1H-quinolin-2-one]	6 nM	2 nM
O=C(c1ccc(-n2cc(-c3cc4ccccc4[nH]c3=O)nn2)cc1)N1CCOCC1 [A2, 3-{1-[4-(morpholine-4-carbonyl)-phenyl]-1H-[1,2,3]triazol-4-yl}-1H-quinolin-2-one]	51 nM	12 nM
CN(C)C(=O)c1ccc(-n2cc(-c3cc4cccnc4[nH]c3=O)nn2)cc1 [A3, N,N-dimethyl-4-[4-(2-oxo-1,2-dihydro-[1,8]naphthyridin-3-yl)-[1,2,3]triazol-1-yl]-benzamide]	53 nM	16 nM
CN(C)C(=O)c1ccc(-n2cc(-c3cc4ccccc4[nH]c3=O)nn2)cc1 [A4, N,N-dimethyl-4-[4-(2-oxo-1,2-dihydro-quinolin-3-yl)-[1,2,3]triazol-1-yl]-benzamide]	34 nM	19 nM
O=C(NCCO)c1ccc(-n2cc(-c3cc4cccnc4[nH]c3=O)nn2)cc1 [A8, N-(2-hydroxy-ethyl)-4-[4-(2-oxo-1,2-dihydro-[1,8]naphthyridin-3-yl)-[1,2,3]triazol-1-yl]-benzamide]	170 nM	14 nM
COCCNC(=O)c1ccc(-n2cc(-c3cc4cccnc4[nH]c3=O)nn2)cc1 [A9, N-(2-methoxy-ethyl)-4-[4-(2-oxo-1,2-dihydro-[1,8]naphthyridin-3-yl)-[1,2,3]triazol-1-yl]-benzamide]	760 nM	230 nM
COc1ccc(-n2cc(-c3cc4ccccc4[nH]c3=O)nn2)cc1 [A10, 3-[1-(4-methoxy-phenyl)-1H-[1,2,3]triazol-4-yl]-1H-quinolin-2-one]	82 nM	32 nM
CN(C)C(=O)c1ccc(-n2cc(-c3cc4cc(Cl)cnc4[nH]c3=O)nn2)cc1 [A11, 4-[4-(6-chloro-2-oxo-1,2-dihydro-[1,8]naphthyridin-3-yl)-[1,2,3]triazol-1-yl]-N,N-dimethyl-benzamide]	220 nM	26 nM
O=c1[nH]c2ccccc2cc1-c1cn(-c2ccc(F)cc2)nn1 [A12, 3-[1-(4-fluoro-phenyl)-1H-[1,2,3]triazol-4-yl]-1H-quinolin-2-one]	69 nM	63 nM
O=c1[nH]c2ccccc2cc1-c1cn(-c2ccccc2F)nn1 [A13, 3-[1-(2-fluoro-phenyl)-1H-[1,2,3]triazol-4-yl]-1H-quinolin-2-one]	–	500 nM
O=c1[nH]c2ccccc2cc1-c1cn(-c2ccc(OCCN3CCCC3)cc2)nn1 [A14, 3-{1-[4-(2-pyrrolidin-1-yl-ethoxy)-phenyl]-1H-[1,2,3]triazol-4-yl}-1H-quinolin-2-one]	23 nM	20 nM
CN1CCC(CNC(=O)c2ccc(-n3cc(-c4cc5ccccc5[nH]c4=O)nn3)cc2)CC1 [A15, N-(1-methyl-piperidin-4-ylmethyl)-4-[4-(2-oxo-1,2-dihydro-quinolin-3-yl)-[1,2,3]triazol-1-yl]-benzamide]	49 nM	47 nM

SMILES	IC50 (c-Kit(V654A))	IC50 (PDGFRalpha(V561D))
COc1cnc2[nH]c(=O)c(-c3cn(-c4ccc(C(=O)N(C)C)cc4)nn3)cc2c1 [A16, 4-[4-(6-methoxy-2-oxo-1,2-dihydro-[1,8]naphthyridin-3-yl)-[1,2,3]triazol-1-yl]-N,N-dimethyl-benzamide]	–	33 nM
COC(=O)c1cc(-n2cc(-c3cc4ccccc4[nH]c3=O)nn2)ccn1 [A17, 4-[4-(2-oxo-1,2-dihydro-quinolin-3-yl)-[1,2,3]triazol-1-yl]-pyridine-2-carboxylic acid methyl ester]	290 nM	67 nM
CN(C)C(=O)c1ccc(-n2cc(-c3cc4cc(F)ccc4[nH]c3=O)nn2)cc1 [A18, 4-[4-(6-fluoro-2-oxo-1,2-dihydro-quinolin-3-yl)-[1,2,3]triazol-1-yl]-N,N-dimethyl-benzamide]	15 nM	5 nM
O=C(NCCO)c1ccc(-n2cc(-c3cc4ccccc4[nH]c3=O)nn2)cc1 [A19, N-(2-hydroxy-ethyl)-4-[4-(2-oxo-1,2-dihydro-quinolin-3-yl)-[1,2,3]triazol-1-yl]-benzamide]	38 nM	14 nM
O=C(NCCN1CCOCC1)c1ccc(-n2cc(-c3cc4ccccc4[nH]c3=O)nn2)cc1 [A21, N-(2-morpholin-4-yl-ethyl)-4-[4-(2-oxo-1,2-dihydro-quinolin-3-yl)-[1,2,3]triazol-1-yl]-benzamide]	79 nM	32 nM
CN1CCC(CNC(=O)c2ccc(-n3cc(-c4cc5cc(F)ccc5[nH]c4=O)nn3)cc2)CC1 [A22, 4-[4-(6-fluoro-2-oxo-1,2-dihydro-quinolin-3-yl)-[1,2,3]triazol-1-yl]-N-(1-methyl-piperidin-4-ylmethyl)-benzamide]	27 nM	6 nM
COC(=O)c1cccc(-n2cc(-c3cc4ccccc4[nH]c3=O)nn2)c1 [A23, 3-[4-(2-oxo-1,2-dihydro-quinolin-3-yl)-[1,2,3]triazol-1-yl]-benzoic acid methyl ester]	–	250 nM
COc1cccc(-n2cc(-c3cc4ccccc4[nH]c3=O)nn2)c1 [A24, 3-[1-(3-methoxy-phenyl)-1H-[1,2,3]triazol-4-yl]-1H-quinolin-2-one]	110 nM	26 nM
O=C1COCCN1c1ccc(-n2cc(-c3cc4ccccc4[nH]c3=O)nn2)cc1 [A25, 3-{1-[4-(3-oxo-morpholin-4-yl)-phenyl]-1H-[1,2,3]triazol-4-yl}-1H-quinolin-2-one]	15 nM	3 nM
O=c1[nH]c2ccccc2cc1-c1cn(-c2ccc(OCCN3CCOCC3)cc2)nn1 [A26, 3-{1-[4-(2-morpholin-4-yl-ethoxy)-phenyl]-1H-[1,2,3]triazol-4-yl}-1H-quinolin-2-one]	15 nM	10 nM
O=c1[nH]c2ccccc2cc1-c1cn(-c2ccccc2)nn1 [A27, 3-(1-phenyl-1H-[1,2,3]triazol-4-yl)-1H-quinolin-2-one]	50 nM	32 nM
O=c1[nH]c2ccccc2cc1-c1cn(-c2ccc3nc[nH]c3c2)nn1 [A28, 3-[1-(3H-benzimidazol-5-yl)-1H-[1,2,3]triazol-4-yl]-1H-quinolin-2-one]	36 nM	29 nM
O=C(c1ccc(-n2cc(-c3cc4ccncc4[nH]c3=O)nn2)cc1)N1CCOCC1 [A29, 3-{1-[4-(morpholine-4-carbonyl)-phenyl]-1H-[1,2,3]triazol-4-yl}-1H-[1,7]naphthyridin-2-one]	150 nM	23 nM
Cc1ccc2cc(-c3cn(-c4ccc(C(=O)N5CCOCC5)cc4)nn3)c(=O)[nH]c2n1 [A30, 7-methyl-3-{1-[4-(morpholine-4-carbonyl)-phenyl]-1H-[1,2,3]triazol-4-yl}-1H-[1,8]naphthyridin-2-one]	2200 nM	150 nM
O=C(c1ccc(-n2cc(-c3cc4cc(F)cnc4[nH]c3=O)nn2)cc1)N1CCOCC1 [A31, 6-fluoro-3-{1-[4-(morpholine-4-carbonyl)-phenyl]-1H-[1,2,3]triazol-4-yl}-1H-[1,8]naphthyridin-2-one]	99 nM	13 nM
O=C(c1ccc(-n2cc(-c3cc4ccccc4[nH]c3=O)cn2)cc1)N1CCNCC1 [A73, 3-{1-[4-(piperazine-1-carbonyl)-phenyl]-1H-pyrazol-4-yl}-1H-quinolin-2-one]	–	440 nM
